Data from a compilation of properties of binary mixtures (doi:10.2298/jsc190413047v).

Test: xn = mol fraction of the nth substance listed
Settings: 100 kPa

CCCC[N+]1(C)CCCC1.O=S(=O)([N-]S(=O)(=O)C(F)(F)F)C(F)(F)F + O=C1CCCO1
Settings | electrical conductivity [S/m] | viscosity [mPa·s]
298.15 K, x2 = 0 | 0.277 | 76.7
298.15 K, x2 = 0.1075 | 0.329 | 58.5
298.15 K, x2 = 0.2019 | 0.394 | 44.4
298.15 K, x2 = 0.3004 | 0.468 | 34.2
298.15 K, x2 = 0.3996 | 0.554 | 24.5
298.15 K, x2 = 0.5044 | 0.726 | 16.91
298.15 K, x2 = 0.5999 | 0.953 | 12.03
298.15 K, x2 = 0.7009 | 1.24 | 8.13
298.15 K, x2 = 0.7997 | 1.47 | 5.31
298.15 K, x2 = 0.8509 | 1.55 | –
298.15 K, x2 = 0.9 | 1.46 | 3.32
298.15 K, x2 = 0.9498 | 1.12 | –
303.15 K, x2 = 0 | 0.338 | 61.7
303.15 K, x2 = 0.1075 | 0.381 | 47.8
303.15 K, x2 = 0.3004 | 0.545 | 28.4
303.15 K, x2 = 0.3996 | 0.654 | 20.78
303.15 K, x2 = 0.5044 | 0.818 | 14.5
303.15 K, x2 = 0.5999 | 1.08 | 10.43
303.15 K, x2 = 0.7009 | 1.37 | 7.18
303.15 K, x2 = 0.7997 | 1.63 | 4.78
303.15 K, x2 = 0.8509 | 1.72 | –
303.15 K, x2 = 0.9 | 1.59 | 3.04
303.15 K, x2 = 0.9498 | 1.22 | –
308.15 K, x2 = 0 | 0.412 | 50.5
308.15 K, x2 = 0.2019 | 0.545 | 30.6
308.15 K, x2 = 0.3996 | 0.758 | 17.56
308.15 K, x2 = 0.5044 | 0.92 | 12.58
308.15 K, x2 = 0.5999 | 1.21 | 9.19
308.15 K, x2 = 0.7009 | 1.52 | 6.39
308.15 K, x2 = 0.7997 | 1.8 | 4.35
308.15 K, x2 = 0.8509 | 1.89 | –
308.15 K, x2 = 0.9 | 1.72 | 2.79
313.15 K, x2 = 0 | 0.491 | 41.7
313.15 K, x2 = 0.1075 | 0.538 | 32.9
313.15 K, x2 = 0.2019 | 0.621 | 26.1
313.15 K, x2 = 0.3004 | 0.736 | 20.38
313.15 K, x2 = 0.3996 | 0.865 | 15.37
313.15 K, x2 = 0.5044 | 1.02 | 11.12
313.15 K, x2 = 0.5999 | 1.34 | 8.16
313.15 K, x2 = 0.7997 | 1.97 | 3.96
313.15 K, x2 = 0.8509 | 2.06 | –
313.15 K, x2 = 0.9 | 1.85 | 2.57
318.15 K, x2 = 0 | 0.579 | 34.7
318.15 K, x2 = 0.1075 | 0.616 | 27.6
318.15 K, x2 = 0.3004 | 0.812 | 17.43
318.15 K, x2 = 0.3996 | 0.971 | 13.26
318.15 K, x2 = 0.5044 | 1.15 | 9.7
318.15 K, x2 = 0.5999 | 1.45 | 7.2
318.15 K, x2 = 0.7009 | 1.83 | 5.14
318.15 K, x2 = 0.7997 | 2.14 | 3.6
318.15 K, x2 = 0.9 | 1.99 | 2.38
323.15 K, x2 = 0 | 0.672 | 29.5
323.15 K, x2 = 0.1075 | 0.713 | 23.1
323.15 K, x2 = 0.2019 | 0.785 | 19.22
323.15 K, x2 = 0.3996 | 1.08 | 11.55
323.15 K, x2 = 0.5044 | 1.28 | 8.62
323.15 K, x2 = 0.7997 | 2.31 | 3.31
323.15 K, x2 = 0.8509 | 2.4 | –
323.15 K, x2 = 0.9 | 2.12 | 2.21

CCCC[n+]1ccn(C)c1.O=S(=O)([N-]S(=O)(=O)C(F)(F)F)C(F)(F)F + O=C1CCCO1
x2 = 0
Settings | electrical conductivity [S/m] | viscosity [mPa·s]
293.15 K | 0.337 | 62.1
308.15 K | 0.552 | 33.65
313.15 K | 0.64 | 28.28
318.15 K | 0.733 | 23.91
323.15 K | 0.835 | 20.64

CCCn1cc[n+](C)c1C.O=S(=O)([N-]S(=O)(=O)C(F)(F)F)C(F)(F)F + O=C1CCCO1
electrical conductivity [S/m]
Settings | 293.15 K | 298.15 K | 303.15 K | 308.15 K | 313.15 K | 318.15 K | 323.15 K
x2 = 0 | 0.196 | – | 0.338 | 0.417 | 0.503 | 0.59 | 0.687
x2 = 0.1289 | 0.24 | 0.312 | – | 0.479 | 0.578 | 0.678 | 0.788
x2 = 0.2006 | – | 0.351 | 0.444 | – | 0.65 | 0.759 | –
x2 = 0.3027 | 0.343 | 0.428 | 0.537 | 0.646 | 0.779 | 0.907 | 1.02
x2 = 0.3969 | 0.451 | 0.539 | 0.657 | 0.789 | 0.935 | 1.09 | 1.23
x2 = 0.4952 | 0.593 | 0.708 | 0.844 | 0.995 | 1.16 | – | 1.46
x2 = 0.5969 | 0.797 | 0.927 | 1.07 | 1.21 | 1.38 | 1.54 | 1.7
x2 = 0.6992 | – | 1.13 | 1.27 | – | – | 1.74 | 1.92
x2 = 0.8002 | – | 1.31 | 1.45 | 1.59 | 1.73 | – | 2.07
x2 = 0.8508 | 1.25 | 1.38 | – | 1.63 | – | 1.91 | 2.06
x2 = 0.8999 | – | 1.32 | 1.44 | 1.55 | – | 1.81 | 1.94
x2 = 0.9495 | 0.875 | 0.954 | 1.03 | – | 1.2 | 1.29 | 1.39

CC[n+]1ccn(C)c1.O=S(=O)([N-]S(=O)(=O)C(F)(F)F)C(F)(F)F + O=C1CCCO1
electrical conductivity [S/m]
Settings | 293.15 K | 298.15 K | 303.15 K | 308.15 K | 313.15 K | 318.15 K | 323.15 K
x2 = 0 | – | 0.915 | – | – | – | 1.51 | 1.75
x2 = 0.1009 | 0.905 | 1.04 | 1.18 | 1.32 | 1.49 | 1.67 | 1.89
x2 = 0.2073 | 1.05 | – | – | 1.48 | 1.65 | – | –
x2 = 0.3005 | – | 1.32 | – | 1.61 | – | 1.96 | 2.19
x2 = 0.3897 | 1.29 | 1.45 | 1.61 | 1.76 | 1.92 | 2.11 | 2.34
x2 = 0.5101 | – | 1.63 | – | 1.95 | 2.12 | – | 2.53
x2 = 0.6 | 1.6 | 1.76 | 1.93 | 2.09 | 2.25 | 2.45 | –
x2 = 0.7 | 1.73 | 1.9 | – | 2.23 | 2.4 | 2.59 | 2.81
x2 = 0.7994 | 1.77 | 1.94 | – | – | 2.42 | – | 2.79
x2 = 0.8498 | 1.75 | 1.9 | – | 2.19 | 2.35 | 2.51 | 2.71
x2 = 0.9005 | – | 1.72 | 1.85 | 1.98 | – | 2.25 | 2.4
x2 = 0.95 | – | 1.22 | – | 1.4 | 1.5 | – | 1.7

CC[n+]1ccn(C)c1C.O=S(=O)([N-]S(=O)(=O)C(F)(F)F)C(F)(F)F + O=C1CCCO1
electrical conductivity [S/m]
Settings | 293.15 K | 298.15 K | 303.15 K | 308.15 K | 313.15 K | 318.15 K | 323.15 K
x2 = 0 | 0.309 | – | 0.468 | 0.567 | 0.67 | 0.783 | –
x2 = 0.0999 | 0.383 | 0.472 | 0.574 | 0.684 | 0.805 | 0.938 | –
x2 = 0.186 | 0.476 | 0.572 | 0.686 | 0.803 | 0.934 | 1.07 | 1.21
x2 = 0.3071 | – | 0.742 | 0.868 | 1.01 | 1.16 | 1.31 | 1.45
x2 = 0.4005 | 0.726 | 0.864 | 1.01 | 1.17 | 1.33 | 1.5 | 1.61
x2 = 0.4996 | 0.881 | 1.01 | 1.17 | – | 1.51 | – | 1.81
x2 = 0.5987 | 1.06 | 1.22 | 1.37 | 1.53 | 1.7 | 1.88 | –
x2 = 0.6999 | 1.24 | – | 1.57 | 1.74 | 1.91 | 2.08 | 2.21
x2 = 0.7999 | – | – | 1.69 | 1.85 | 2.01 | 2.19 | 2.39
x2 = 0.8474 | 1.43 | 1.58 | 1.73 | 1.86 | 2.01 | 2.15 | –
x2 = 0.8999 | 1.35 | 1.48 | 1.6 | – | – | 1.97 | 2.07
x2 = 0.9507 | – | 1 | 1.08 | 1.16 | 1.24 | 1.32 | –

CCCCn1cc[n+](C)c1C.O=S(=O)([N-]S(=O)(=O)C(F)(F)F)C(F)(F)F + O=C1CCCO1
electrical conductivity [S/m]
Settings | 293.15 K | 298.15 K | 303.15 K | 308.15 K | 313.15 K | 318.15 K | 323.15 K
x2 = 0 | 0.178 | 0.23 | 0.289 | 0.351 | 0.426 | – | –
x2 = 0.1014 | – | 0.262 | 0.325 | 0.398 | – | 0.569 | 0.669
x2 = 0.1987 | 0.246 | 0.301 | 0.367 | 0.442 | 0.525 | 0.619 | 0.739
x2 = 0.3 | – | 0.37 | – | – | 0.631 | 0.729 | 0.842
x2 = 0.4001 | 0.381 | 0.465 | 0.567 | 0.67 | 0.787 | 0.904 | 1.03
x2 = 0.4995 | 0.511 | 0.613 | 0.722 | 0.861 | 0.976 | 1.1 | 1.27
x2 = 0.5994 | 0.706 | 0.807 | 0.934 | 1.07 | 1.22 | 1.36 | 1.52
x2 = 0.7012 | 0.882 | 1.01 | 1.14 | – | – | – | 1.74
x2 = 0.8001 | – | 1.25 | 1.39 | 1.53 | 1.68 | 1.83 | 1.99
x2 = 0.8496 | 1.19 | 1.31 | 1.45 | 1.58 | 1.72 | 1.85 | 2
x2 = 0.8996 | 1.18 | – | 1.41 | 1.53 | 1.66 | 1.78 | 1.91
x2 = 0.9468 | 0.849 | 0.927 | – | 1.1 | 1.2 | 1.3 | 1.41
